# Laboratory results reported in ChEMBL document CHEMBL1129551, “All-atom models for the non-nucleoside binding site of HIV-1 reverse transcriptase complexed with inhibitors: a 3D QSAR approach” (J Med Chem, 1996).
# Biological target: Human immunodeficiency virus type 1 reverse transcriptase (Human immunodeficiency virus 1, UniProt Q72547)
# Assay: Inhibitory activity against HIV-1 reverse transcriptase
row,Compound,IC50
1,CCN1c2ncccc2-c2nccn2-c2ccc(N3CC=CCC3)nc21,3.9 µM
2,CCN1c2ncccc2-c2ncc(C)n2-c2ccc(N3CC=CCC3)nc21,2.7 µM
3,CCc1nc2n(c1C)-c1cccnc1N(CC)c1ncccc1-2,5.63 µM
4,CCN1c2ncccc2-c2ncc(C)n2-c2c(C)cc(=O)[nH]c21,12.2 µM
